{"source": "patent US8298991B2", "about": "“Method for controlling undesired mimosoideae vegetation” (E I du Pont de Nemours and Company, priority 2008, dated 2012)", "key": {"[1]": {"tested_on": "huisache (Acacia farnesiana)", "assay": "Test A: field study, control of a natural stand of huisache", "type": "in vivo", "details": "for % Defoliation 62 DAA: 62 days after application, vs control plot, foliar spray with 1% methylated seed oil, g ai/ha: Compound 1 250, fosamine-ammonium 6688, imazapyr (a.e.) 280, metsulfuron-methyl 42, alone or combined; for % Control 229 DAA: 229 days after application; for % Control 229 DAA / % Control 543 DAA / % Control 656 DAA / % Control 745 DAA: % of trees with no green foliage or regrowth, g ai/ha: Compound 1 250, fosamine-ammonium 6688, imazapyr 280, metsulfuron-methyl 42; for % Control 543 DAA: 543 days after application; for % Control 656 DAA: 656 days after application; for % Control 745 DAA: 745 days after application", "procedure": "A field study was conducted to evaluate the efficacy of 250 g/ha of Compound 1, 6.7 kg/ha of fosamine-ammonium (i.e. ammonium salt of fosamine), 280 g/ha of imazapyr (provided in the form of the isopropylammonium salt of imazapyr) and 42 g/ha of metsulfuron-methyl, separately and in combination, for controlling a natural stand of huisache (Acacia farnesiana) on a ranch in southeastern Texas. Compound 1 was in the form of a wettable granule formulation containing 80% by weight of Compound 1. Fosamine-ammonium was provided by KRENITE® S, which is a water-soluble liquid formulation containing 41.5% of fosamine-ammonium. Imazapyr was provided by ARSENAL®, which is a water-soluble liquid formulation containing 28.7% of imazapyr-isopropylammonium (equivalent to 22.6% of imazapyr, i.e. imazapyr acid equivalent). Metsulfuron-methyl was provided by ESCORT® XP, which is a wettable granule formulation containing 60% of metsulfuron-methyl.\nThe trial design was a large block, single replicate field study using rectangular test plots measuring 12.8 m by 22.9 m. The huisache trees in the test plots averaged 2.4 m tall and were estimated to be approximately 20 years old. The formulated herbicides were diluted with water and 1% by volume of methylated seed oil was added to provide about 27.4 L of spray mixture. The treatments were applied in early autumn using a high-volume handgun sprayer projecting the spray mixture upward and across a plot in a slow back and forth motion while traversing the plot lengthwise. This produced a rainfall-like spray covering both the huisache trees and ground between trees in the plots. The volume of spray mixture used (corresponding to 935 L/ha) was sufficient to thoroughly wet the foliage of the huisache trees with relatively little drip or run off under the trees.\nThe effects of the herbicide treatments were visually evaluated. At 62 days after application (DAA), the percentage of defoliation in comparison to a control plot was observed. Then at 229, 543, 656 and 745 days after application % control was calculated based on the percentage of trees showing no green foliage or regrowth."}, "[2]": {"tested_on": "honey mesquite (Prosopis glandulosa)", "assay": "Test B: field study, control of natural stands of honey mesquite", "type": "in vivo", "details": "for % Control Site 1 Observed: Site 1, 12 months after application, 94 L/ha; for % Control Site 1 Observed / % Control Site 2 Observed: % dead trees, g ai/ha: Compound 1 125, triclopyr (a.e., as butotyl ester) 280; for % Control Site 2 Observed: Site 2, 10 months after application, 140 L/ha", "procedure": "A field study was conducted to evaluate the efficacy of 125 g/ha of Compound 1 and 280 g/ha of triclopyr (in the form of the butoxyethyl ester of triclopyr, i.e. triclopyr-butotyl), separately and in combination, for controlling natural stands of honey mesquite (Prosopis glandulosa) on ranches in western Texas. Compound 1 was in the form of an 80% wettable granule formulation. Triclopyr was provided by GARLON® 4 or REMEDY®, which are emulsifiable concentrate formulations containing 44.3% or 61.6% of triclopyr-butotyl, respectively.\nThe trial design was a large block, single replicate test. Each test used rectangular test plots measuring 3 m by 9 m and incorporating at least 10 mesquite plants per plot. The formulated herbicides were diluted with water, and 1% by volume of methylated seed oil was added, to provide volumes of spray mixtures corresponding to a rate of 94 L/ha at Site 1 and 140 L/ha at Site 2. The treatments were applied using flat fan nozzles on an elevated spray boom moved across the plots by an all-terrain vehicle or small tractor. The elevated spray boom and relatively low spray volumes simulated aerial (e.g., helicopter or fixed wing aircraft) applications.\nIn each plot 10 mesquite trees were identified with a metal tag for evaluation. The effects of the herbicide treatments were evaluated 12 months after application at Site 1 and 10 months after application at Site 2. Visual evaluations were used to rate the herbicidal effect of the various treatments. A tree was considered alive if any foliage was present within the tree canopy area or if any new growth (i.e. sprouts) emerged from the base of the tree.\nExpected results were calculated using the Colby Equation. Colby's equation (S. R. Colby, “Calculating Synergistic and Antagonistic Responses of Herbicide Combinations,” Weeds, 15(1), pp 20-22 (1967)) calculates the expected additive effect of herbicidal mixtures, and for two active ingredients is of the form: Pa+b=Pa+Pb−(PaPb/100) wherein • Pa+b is the percentage effect of the mixture expected from additive contribution of the individual components, • Pa is the observed percentage effect of the first active ingredient at the same use rate as in the mixture, and • Pb is the observed percentage effect of the second active ingredient at the same use rate as in the mixture."}}, "data": [{"smiles": "CC(C)C1(C)N=C(c2ncccc2C(=O)O)NC1=O", "note": "(racemic) [Imazapyr, (±)-2-[4,5-dihydro-4-methyl-4-(1-methylethyl)-5-oxo-1H-imidazol-2-yl]-3-pyridinecarboxylic acid]", "values": [{"measurement": "% Defoliation 62 DAA", "setting": "[1]", "result": 70, "unit": "%"}, {"measurement": "% Control 229 DAA", "setting": "[1]", "result": 9, "unit": "%"}, {"measurement": "% Control 543 DAA", "setting": "[1]", "result": 0, "unit": "%"}, {"measurement": "% Control 656 DAA", "setting": "[1]", "result": 0, "unit": "%"}, {"measurement": "% Control 745 DAA", "setting": "[1]", "result": 0, "unit": "%"}]}, {"smiles": "COC(=O)c1nc(C2CC2)nc(N)c1Cl", "note": "[Compound 1, methyl 6-amino-5-chloro-2-cyclopropyl-4-pyrimidine-carboxylate]", "values": [{"measurement": "% Defoliation 62 DAA", "setting": "[1]", "result": 100, "unit": "%"}, {"measurement": "% Control 229 DAA", "setting": "[1]", "result": 91, "unit": "%"}, {"measurement": "% Control 745 DAA", "setting": "[1]", "result": 33, "unit": "%"}, {"measurement": "% Control Site 1 Observed", "setting": "[2]", "result": 60, "unit": "%"}, {"measurement": "% Control Site 2 Observed", "setting": "[2]", "result": 60, "unit": "%"}, {"measurement": "long-term control of honey mesquite (text summary over Sites 1 and 2)", "setting": "[2]; both sites, Compound 1 125 g/ha, triclopyr 280 g/ha", "result": 60, "unit": "%"}]}, {"smiles": "CCOP(=O)(O)C(N)=O", "note": "[Fosamine, ethyl hydrogen (aminocarbonyl)phosphonate]", "values": [{"measurement": "% Defoliation 62 DAA", "setting": "[1]", "result": 75, "unit": "%"}, {"measurement": "% Control 229 DAA", "setting": "[1]", "result": 0, "unit": "%"}, {"measurement": "% Control 543 DAA", "setting": "[1]", "result": 0, "unit": "%"}, {"measurement": "% Control 656 DAA", "setting": "[1]", "result": 0, "unit": "%"}, {"measurement": "% Control 745 DAA", "setting": "[1]", "result": 0, "unit": "%"}]}, {"smiles": "COC(=O)c1ccccc1S(=O)(=O)NC(=O)Nc1nc(C)nc(OC)n1", "note": "[Metsulfuron-methyl, methyl 2-[[[[(4-methoxy-6-methyl-1,3,5-triazin-2-yl)amino]carbonyl]amino]sulfonyl]benzoate]", "values": [{"measurement": "% Defoliation 62 DAA", "setting": "[1]", "result": 85, "unit": "%"}, {"measurement": "% Control 229 DAA", "setting": "[1]", "result": 11, "unit": "%"}, {"measurement": "% Control 543 DAA", "setting": "[1]", "result": 0, "unit": "%"}, {"measurement": "% Control 656 DAA", "setting": "[1]", "result": 0, "unit": "%"}, {"measurement": "% Control 745 DAA", "setting": "[1]", "result": 0, "unit": "%"}]}, {"smiles": "O=C(O)COc1nc(Cl)c(Cl)cc1Cl", "note": "[Triclopyr, [(3,5,6-trichloro-2-pyridyl)oxy]acetic acid]", "values": [{"measurement": "% Control Site 1 Observed", "setting": "[2]", "result": 0, "unit": "%"}, {"measurement": "% Control Site 2 Observed", "setting": "[2]", "result": 30, "unit": "%"}]}]}
